Measured values reported in US20240041042A1, “1-(PYRIDYL)-5-AZINYLPYRAZOLE DERIVATIVES, AND THEIR USE FOR CONTROL OF UNDESIRED PLANT GROWTH” (Bayer Aktiengesellschaft, priority 2020, published 2024).
Read-outs that look alike come from different tables or passages of the source.

Key:
Assay type in all cases: in vivo
[1] = system: Avena fatua (AVEFA); test: Pre-emergence herbicidal action against AVEFA; details: 320 g/ha, visual scoring after about 3 weeks vs untreated controls
Method in brief: (§1)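 Read-out is visual percent damage relative to untreated pots, with 100% meaning dead plants and 0% meaning no difference, assessed roughly three weeks after treatment. Compounds were applied pre-emergence to the covering soil at up to 320 g/ha.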

[2] = system: Zea mays (ZEAMX); details: crop plant compatibility, effect vs untreated controls
Method in brief: (§2)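 Test crops were treated 2 to 3 weeks after sowing, once they reached one leaf, by spraying compound in water with 0.5% additive at 600 l/ha. Visual scoring compared them with untreated controls roughly 3 weeks on, and appendices a, b and c denote different doses.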

[3] = system: Oryza sativa (ORYSA); details: crop plant compatibility, effect in comparison to untreated controls
Method in brief: as §2

[4] = system: Lolium rigidum (LOLRI); test: Pre-emergence herbicidal action against LOLRI
Method in brief: as §1

[5] = system: Avena fatua (AVEFA); test: Post-emergence herbicidal action against AVEFA; details: visual rating about 3 weeks after treatment
Method in brief: (§3)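 Doses of 320 g/ha or lower, suffixes a, b and c marking different dosages, were applied post-emergence at the one-leaf stage in 600 l/ha water with 0.5% additive. Damage was assessed visually after about 3 weeks in the greenhouse.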

[6] = system: Verconica persica (VERPE); test: Post-emergence herbicidal action against VERPE
Method in brief: as §3

[7] = system: Polygonum convolvulus (POLCO); test: Post-emergence herbicidal action against POLCO
Method in brief: as §3

[8] = system: Amaranthus retroflexus (AMARE); test: Pre-emergence herbicidal action against AMARE; details: visual scoring after about 3 weeks vs untreated controls
Method in brief: as §1

[9] = system: Alopecurus myosuroides (ALOMY); test: Post-emergence herbicidal action against ALOMY; details: visual rating about 3 weeks after treatment vs untreated controls (100% = plants have died, 0% = like control plants)
Method in brief: as §3

[10] = system: Echinochloa crus-galli (ECHCG); test: Post-emergence herbicidal action against ECHCG
Method in brief: as §3

[11] = system: Alopecurus myosuroides (ALOMY); test: Pre-emergence herbicidal action against ALOMY; details: 320 g/ha; scored visually after about 3 weeks; 100% = plants have died
Method in brief: as §1

[12] = system: Setaria viridis (SETVI); test: Post-emergence herbicidal action against SETVI; details: dosage 320 g/ha
Method in brief: as §3

[13] = system: Zea mays (ZEAMX); details: pre-emergence, 80 g/ha, crop plant compatibility, in comparison to untreated controls
Method in brief: (§4)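 Scoring: visual, % of untreated control, about 3 weeks after a pre-emergence application to the soil surface. Application used WP or EC formulations diluted in water with 0.5% additive at 600 l/ha; dosage levels are marked by suffixes a, b and c.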

[14] = system: Brassica napus (BRSNW); details: crop plant compatibility, in comparison to untreated controls
Method in brief: as §4

[15] = system: Oryza sativa (ORYSA); details: pre-emergence, crop plant compatibility, in comparison to untreated controls
Method in brief: as §4

[16] = system: Viola tricolor (VIOTR); test: Pre-emergence herbicidal action against VIOTR
Method in brief: as §1

[17] = system: Setaria viridis (SETVI); test: Pre-emergence herbicidal action against SETVI; details: dosage 320 g/ha
Method in brief: as §1

[18] = system: Triticum aestivum (TRZAS); details: crop plant compatibility, 80 g/ha, effect vs untreated controls
Method in brief: as §2

[19] = system: Digitaria sanguinalis (DIGSA); test: Pre-emergence herbicidal action against DIGSA; details: dosage 320 g/ha
Method in brief: as §1

[20] = system: Lolium rigidum (LOLRI); test: Post-emergence herbicidal action against LOLRI
Method in brief: as §3

[21] = system: Polygonum convolvulus (POLCO); test: Pre-emergence herbicidal action against POLCO; details: dosage 320 g/ha
Method in brief: as §1

[22] = system: Pharbitis purpurea (PHBPU); test: Pre-emergence herbicidal action against PHBPU; details: dosage 320 g/ha
Method in brief: as §1

[23] = system: Viola tricolor (VIOTR); test: Post-emergence herbicidal action against VIOTR
Method in brief: as §3

[24] = system: Pharbitis purpurea (PHBPU); test: Post-emergence herbicidal action against PHBPU
Method in brief: as §3

[25] = system: Amaranthus retroflexus (AMARE); test: Post-emergence herbicidal action against AMARE
Method in brief: as §3

[26] = system: Echinochloa crus-galli (ECHCG); test: Pre-emergence herbicidal action against ECHCG; details: dosage 320 g/ha
Method in brief: as §1

[27] = system: Verconica persica (VERPE); test: Pre-emergence herbicidal action against VERPE
Method in brief: as §1

[28] = system: Matricaria inodora (MATIN); test: Pre-emergence herbicidal action against MATIN; details: dosage 320 g/ha
Method in brief: as §1

[29] = system: Abutilon theophrasti (ABUTH); test: Pre-emergence herbicidal action against ABUTH; details: Dosage column 320 g/ha (title prints 3200 g/ha); scored visually after about 3 weeks; 100% = plants have died
Method in brief: as §1

[30] = system: Abutilon theophrasti (ABUTH); test: Post-emergence herbicidal action against ABUTH; details: 320 g/ha, visual rating about 3 weeks after treatment vs untreated controls (100% = plants have died, 0% = like control plants)
Method in brief: as §3

[31] = 320 g/ha, visual rating about 3 weeks after treatment

SMILES | Pre-emergence action against AVEFA in % [1] [%] | Post-emergence action against ZEAMX in % ([2]; 80 g/ha) [%] | Post-emergence action against ORYSA in % ([3]; 80 g/ha) [%] | Pre-emergence action against LOLRI in % ([4]; dosage 320 g/ha) [%] | Post-emergence action against AVEFA in % ([5]; 320 g/ha) [%] | Post-emergence action against VERPE in % ([6]; 320 g/ha, VERPE) [%] | Post-emergence action against POLCO in % ([7]; dosage 320 g/ha) [%] | Pre-emergence action against AMARE in % ([8]; 320 g/ha) [%] | Post-emergence action against ALOMY in % ([9]; 320 g/ha) [%] | Post-emergence action against ECHCG in % ([10]; dosage 320 g/ha) [%] | Pre-emergence action against ALOMY [11] [%] | Post-emergence action against SETVI in % [12] [%] | Pre-emergence action against ZEAMX in % [13] [%] | Pre-emergence action against BRSNW in % ([14]; 80 g/ha) [%] | Pre-emergence action against ORYSA in % ([15]; 80 g/ha) [%] | Pre-emergence action against VIOTR in % ([16]; 320 g/ha, Viola tricolor) [%] | Pre-emergence action against SETVI in % [17] [%] | Post-emergence action against ZEAMX in % ([2]; 320 g/ha) [%] | Post-emergence action against LOLRI in % ([20]; dosage 320 g/ha) [%] | Pre-emergence action against POLCO in % [21] [%] | also measured
COC(=O)CCOC(=O)COc1nn(-c2ncccc2F)c(-c2ccc(F)nc2)c1Cl [Example I-272] | 100 | 10 | 10 | 80 | 80 | 80 | 80 | 90 | 90 | 80 | 90 | 80 | 0 | 0 | 10 | 90 | 90 | – | – | – | –
COC(=O)C=CC(C)NC(=O)COc1nn(-c2ccccn2)c(-c2ccc(F)nc2)c1Br (stereo not shown) [Example I-297] | – | – | – | – | – | 80 | – | 80 | – | – | 80 | – | 10 | 20 | 10 | – | – | 0 | – | – | Post-emergence action against TRZAS in % [18]: 10%; Pre-emergence action against DIGSA in % [19]: 80%; Pre-emergence action against ORYSA in % ([15]; 320 g/ha): 20%
COC(=O)CCOC(=O)COc1nn(-c2ncccc2C(F)(F)F)c(-c2ccc(F)nc2)c1Br [Example I-381] | – | 0 | 20 | 90 | – | 80 | – | 90 | – | 80 | 90 | – | 0 | 0 | 20 | 90 | – | – | 80 | 80 | Post-emergence action against ORYSA in % ([3]; 320 g/ha): 20%; Pre-emergence action against VIOTR in % ([16]; dosage 80 g/ha): 80%
COC(=O)[C@@H](C)Oc1nn(-c2nc(F)ccc2F)c(-c2ccc(F)nc2)c1Br [Example I-319] | 100 | 10 | 0 | 100 | 80 | 80 | 80 | 100 | 90 | 90 | 100 | 80 | – | 20 | – | 100 | 100 | – | 80 | 90 | Pre-emergence action against PHBPU in % [22]: 90%; Pre-emergence action against LOLRI in % ([4]; dosage 80 g/ha): 90%; Post-emergence action against VIOTR in % ([23]; 80 g/ha): 80%; Post-emergence action against VIOTR in % ([23]; 320 g/ha): 90%; Post-emergence action against PHBPU in % ([24]; dosage 80 g/ha): 80%; Post-emergence action against PHBPU in % ([24]; dosage 320 g/ha): 90%; Post-emergence action against AMARE in % [25, 31]: 80%; Post-emergence action against LOLRI in % ([20]; dosage 80 g/ha): 80%; Post-emergence action against AVEFA in % ([5]; 80 g/ha): 80%; Post-emergence action against ALOMY in % ([9]; 80 g/ha): 90%; Post-emergence action against ECHCG in % ([10]; dosage 80 g/ha): 80%; Pre-emergence action against VIOTR in % ([16]; dosage 80 g/ha): 100%; Pre-emergence action against ECHCG in % [26]: 100%; Pre-emergence action against VERPE in % ([27]; dosage 80 g/ha): 80%; Pre-emergence action against VERPE in % ([27]; dosage 320 g/ha): 90%; Pre-emergence action against MATIN in % [28]: 90%; Pre-emergence action against ABUTH [29]: 80%; Post-emergence action against ABUTH in % [30]: 80%
CCOC(=O)COc1nn(-c2ncccc2C(F)(F)F)c(-c2ccc(F)nc2)c1Br [Example I-335] | 80 | 0 | 0 | 90 | 90 | 90 | 80 | 90 | 100 | 90 | 80 | 90 | 20 | 0 | 0 | 100 | – | 20 | 90 | 90 | Pre-emergence action against PHBPU in % [22]: 80%; Post-emergence action against VIOTR in % ([23]; 80 g/ha): 80%; Post-emergence action against VIOTR in % ([23]; 320 g/ha): 90%; Post-emergence action against AMARE in % ([25]; 80 g/ha, visual rating about 3 weeks after treatment vs untreated controls (100% = plants have died, 0% = like control plants)): 80%; Post-emergence action against AMARE in % [25, 31]: 80%; Post-emergence action against VERPE in % ([6]; dosage 80 g/ha): 90%; Post-emergence action against POLCO in % ([7]; dosage 80 g/ha): 80%; Post-emergence action against ECHCG in % ([10]; dosage 80 g/ha): 80%; Pre-emergence action against BRSNW in % ([14]; 320 g/ha): 0%; Pre-emergence action against VERPE in % ([27]; dosage 320 g/ha): 80%
COCCOC(=O)COc1nn(-c2ncccc2C(F)(F)F)c(-c2ccc(F)nc2)c1Br [Example I-378] | – | 10 | 10 | 90 | – | 80 | – | 90 | – | 80 | 80 | 80 | 0 | 0 | 0 | 90 | – | – | – | 80 | Pre-emergence action against AMARE in % ([8]; 80 g/ha): 80%; Post-emergence action against ABUTH in % [30]: 80%
